Results published in patent publication US12455279B2, “Personalized immunotherapy for rejuvenating activating and strengthening exhausted and dysfunctional T cells, reducing PD-1, and improving immune function” (priority 2018, dated 2025).
Where no end group is shown, it is not given here.

Columns and labels:
Format in all cases: cell-based
[1] = tested on: PD-1 expressing large proliferating CD3+ normal human T cells; test: PD-1 expression on large proliferating T cells (FSC/SSC gating), 1 Hr treatment; conditions: for % reduction in % of large T cells expressing PD-1: vs untreated
Experimental: (§1) Peripheral blood lymphocytes (PBLs) were separated from normal human leukocytes of healthy donors by Ficol separation and CD3 positive T cells were separated by anti-CD3 antibody-coupled magnetic beads. The CD3+ T cells were cultured in RPMI 1640 medium supplemented with 10% heat inactivated fetal calf serum (FCS), 1% L-Glutamine, 1% sodium pyruvate, 1% non-essential amino acids, and 1% antibiotics. The cells were usually maintained for, for on average 24 hours after their separation before various molecules were added and their effects on the T cells were measured. […] It was therefore tested if neurotransmitters, neuropeptides, and/or modulators of voltage-gated ion channels can reduce PD-1 on the cell surface of T cells. Such a reduction would allow the T cells to escape the tumor-induced T cell suppression, and the activated T cells could then attach the cancer cells. As such, the expression of PD-1 on the surface of these treated and untreated T cells was monitored. […] Shorter in vitro incubation times are frequently preferable when cells are going to subsequently be returned to a subject, as they end to decrease the risk of an adverse reaction.
(§2) CD3 positive T cells of patients are a heterogenous mix of different types of T cells. […] Using this FCS and SSC analysis, T cells can be distinguished and separated by size into large proliferating T cells and smaller non-proliferating T cells.

[2] = tested on: PD-1 expressing smaller non-proliferating CD3+ normal human T cells; test: PD-1 expression on smaller non-proliferating T cells (FSC/SSC gating), 1 Hr treatment; conditions: for % reduction in % of smaller T cells expressing PD-1: vs untreated
Experimental: as §1, §2

[3] = tested on: PD-1 expressing CD3+ normal human T cells; test: PD-1 surface expression on CD3+ T cells of healthy donors after treatment (1, 18, 24 Hr); conditions: for % reduction in % of T cells expressing PD-1: vs untreated
Experimental: as §1

Compound: Cc1c(C2CCN(CCc3ccccc3)CC2)noc1-c1ccc(Cl)cc1 [L-741,742]
- % of large T cells expressing PD-1 ([1]; concentration not given): 19.3%
- % reduction in % of large T cells expressing PD-1 ([1]; concentration not given): 10.2%
- % of smaller T cells expressing PD-1 ([2]; concentration not given): 37.8%
- % reduction in % of smaller T cells expressing PD-1 ([2]; concentration not given): 13.9%

Compound: CN[C@@H]1Cc2cccc3[nH]c(=O)n(c23)C1 [Sumanirole]
- % of T cells expressing PD-1 ([3]; 1 Hr treatment, 10^−8M): 25.65%
- % reduction in % of T cells expressing PD-1 ([3]; 1 Hr treatment, 10^−8M): 30%
- % of T cells expressing PD-1 ([3]; 18 Hr treatment, 10^−7M): 26.15%
- % reduction in % of T cells expressing PD-1 ([3]; 18 Hr treatment, 10^−7M): 24.64%
- % of T cells expressing PD-1 ([3]; 24 Hr treatment, 10^−7M): 16.4%
- % reduction in % of T cells expressing PD-1 ([3]; 24 Hr treatment, 10^−7M): 19.71%
- % of T cells expressing PD-1 ([3]; 24 Hr treatment, 10^−8M): 16%
- % reduction in % of T cells expressing PD-1 ([3]; 24 Hr treatment, 10^−8M): 21.66%
- % of large T cells expressing PD-1 ([1]; 10^−8M): 13.6%
- % reduction in % of large T cells expressing PD-1 ([1]; 10^−8M): 36.7%
- % of smaller T cells expressing PD-1 ([2]; 10−8M): 36.2%
- % reduction in % of smaller T cells expressing PD-1 ([2]; 10−8M): 17.5%

Compound: CN1CCc2cc(Cl)c(O)cc2[C@H]2c3ccccc3CC[C@@H]21 [SCH 39166]
- % of large T cells expressing PD-1 ([1]; concentration not given): 19.8%
- % reduction in % of large T cells expressing PD-1 ([1]; concentration not given): 7.9%
- % of smaller T cells expressing PD-1 ([2]; concentration not given): 40.1%
- % reduction in % of smaller T cells expressing PD-1 ([2]; concentration not given): 8.7%

Compound: Oc1cc2c(cc1O)C(c1ccccc1)CNCC2 (centres unmarked) [SKF38393]
- % of T cells expressing PD-1 ([3]; 1 Hr treatment, 10^−8M): 26.2%
- % reduction in % of T cells expressing PD-1 ([3]; 1 Hr treatment, 10^−8M): 28%
- % of T cells expressing PD-1 ([3]; 18 Hr treatment, 10^−7M): 26.40%
- % reduction in % of T cells expressing PD-1 ([3]; 18 Hr treatment, 10^−7M): 23.90%
- % of T cells expressing PD-1 ([3]; 24 Hr treatment, 10^−7M): 21.8%
- % reduction in % of T cells expressing PD-1 ([3]; 24 Hr treatment, 10^−7M): -6.73%
- % of T cells expressing PD-1 ([3]; 24 Hr treatment, 10^−8M): 20.3%
- % reduction in % of T cells expressing PD-1 ([3]; 24 Hr treatment, 10^−8M): 0.61%
- effect on PD-1 expressing T cells ([3]; incubated for 24 hours): did not have a positive effect
- % of large T cells expressing PD-1 ([1]; 10^−8M): 15.6%
- % reduction in % of large T cells expressing PD-1 ([1]; 10^−8M): 27.4%
- % of smaller T cells expressing PD-1 ([2]; 10−8M): 36.7%
- % reduction in % of smaller T cells expressing PD-1 ([2]; 10−8M): 16.4%

Compound: CCCN(CCC)C1CCc2ccc(O)cc2C1 (centres unmarked) [7-OH-DPAT]
- % of T cells expressing PD-1 ([3]; 1 Hr treatment, 10^−8M): 21.65%
- % reduction in % of T cells expressing PD-1 ([3]; 1 Hr treatment, 10^−8M): 42%
- % of T cells expressing PD-1 ([3]; 24 Hr treatment, 10^−7M): 5.12%
- % reduction in % of T cells expressing PD-1 ([3]; 24 Hr treatment, 10^−7M): 75.85%
- % of T cells expressing PD-1 ([3]; 24 Hr treatment, 10^−8M): 13.6%
- % reduction in % of T cells expressing PD-1 ([3]; 24 Hr treatment, 10^−8M): 35.85%

Compound: GnRH-I: neuropeptide (QHWSYGLRPG; ends and bridges not checked; UniProt P01148 24-33, looked up)
- % of T cells expressing PD-1 ([3]; 1 Hr treatment, 10^−8M): 34.27%
- % reduction in % of T cells expressing PD-1 ([3]; 1 Hr treatment, 10^−8M): 6%
- % of large T cells expressing PD-1 ([1]; 10^−8M): 16.1%
- % reduction in % of large T cells expressing PD-1 ([1]; 10^−8M): 25.1%
- % of smaller T cells expressing PD-1 ([2]; 10−8M): 36.6%
- % reduction in % of smaller T cells expressing PD-1 ([2]; 10−8M): 16.6%

Compound: Cc1cccc(NC(=O)CN2CCC(c3ccccn3)CC2)c1 [A412997]
- % of T cells expressing PD-1 ([3]; 1 Hr treatment, 10^−8M): 17.4%
- % reduction in % of T cells expressing PD-1 ([3]; 1 Hr treatment, 10^−8M): 52%

Compound: Dendrotoxin K
- % of T cells expressing PD-1 ([3]; 1 Hr treatment, 10^−8M): 34.6%
- % reduction in % of T cells expressing PD-1 ([3]; 1 Hr treatment, 10^−8M): 25%
- % of T cells expressing PD-1 ([3]; 18 Hr treatment, 10^−7M): 23.30%
- % reduction in % of T cells expressing PD-1 ([3]; 18 Hr treatment, 10^−7M): 32.85%
- % of T cells expressing PD-1 ([3]; 24 Hr treatment, 10^−7M): 16.2%
- % reduction in % of T cells expressing PD-1 ([3]; 24 Hr treatment, 10^−7M): 20.69%
- % of T cells expressing PD-1 ([3]; 24 Hr treatment, 10^−8M): 16.2%
- % reduction in % of T cells expressing PD-1 ([3]; 24 Hr treatment, 10^−8M): 20.69%

Compound: O=C(NCCCCN1CCN(c2cccc(Cl)c2Cl)CC1)c1ccc2c(c1)Cc1ccccc1-2 [NGB 2904]
- % of large T cells expressing PD-1 ([1]; concentration not given): 22.5%
- % reduction in % of large T cells expressing PD-1 ([1]; concentration not given): −4.7%
- % of smaller T cells expressing PD-1 ([2]; concentration not given): 40.2%
- % reduction in % of smaller T cells expressing PD-1 ([2]; concentration not given): 8.4%
